# Laboratory results published in patent US10435388B2, “Selective inhibitors of clinically important mutants of the EGFR tyrosine kinase” (CS PHARMATECH LIMITED, priority 2016, dated 2019).
# Structures can show the parent of a compound that is named as a salt.
# Experiments:
# [1] = test system: p-EGFR in A431 cells (wild type EGFR, EGF stimulated); test: Wild type EGFR A431 autophosphorylation inhibition assay (ELISA); assay type: cell-based, human; details: Homo sapiens, A-431, cellular EGFR autophosphorylation, 2 h treatment, EGF stimulation 10 min
# Experimental: Cellular EGFR Autophosphorylation Assays.
# Wild Type EGFR A431 Autophosphorylation Inhibition Assay (ELISA).
# After 2 hour treatment with test compounds, add 4.5 μL of EGF (1 μg/mL) into each well and stimulate for 10 min. The rest of the procedure was processed in the same manner as described above for H1975 cells.
# [2] = test system: p-EGFR in H1975 cells (L858R/T790M double mutant EGFR); details: Homo sapiens, NCI-H1975, 2 h, read-out: H1975 IC50 (nM), cellular EGFR autophosphorylation, 2 h treatment, ELISA
# [3] = test system: H1975 cells (DM); test: H1975 inhibition assay (cell proliferation), Method B; assay type: cell-based; details: cellular proliferation, several runs
# [4] = test system: PC9 cells (SM); test: PC-9 growth inhibition assay (cell proliferation), Method B; assay type: cell-based, human; details: cellular proliferation, several runs
# [5] = test system: A431 cells (WT); test: A431 inhibition assay (cell proliferation), Method B; assay type: cell-based, human; details: cellular proliferation, several runs
# Experimental: Cell Proliferation Assays—Method B
# A431 Inhibition Assay, (Cell Proliferation).
# The rest procedure was conducted in the same manner as described above for H1975 cells.
# [6] = test system: p-EGFR in PC9 cells (Exon 19 deletion EGFR); test: Exon19 deletion EGFR (activating single mutant) PC-9 cellular autophosphorylation assay; assay type: cell-based, human; details: Homo sapiens, PC-9, 2 h, 2 h treatment, ELISA
# [7] = target: T1, IGF-1R (Homo sapiens, UniProt P08069); test: IGF-1R inhibition assay (Caliper EZ Reader); assay type: biochemical; details: enzyme assay
# T1 construct: purchased CARNA BIOSCIENCE 08-141
# T1 sequence (P08069 959-1367 limits assumed): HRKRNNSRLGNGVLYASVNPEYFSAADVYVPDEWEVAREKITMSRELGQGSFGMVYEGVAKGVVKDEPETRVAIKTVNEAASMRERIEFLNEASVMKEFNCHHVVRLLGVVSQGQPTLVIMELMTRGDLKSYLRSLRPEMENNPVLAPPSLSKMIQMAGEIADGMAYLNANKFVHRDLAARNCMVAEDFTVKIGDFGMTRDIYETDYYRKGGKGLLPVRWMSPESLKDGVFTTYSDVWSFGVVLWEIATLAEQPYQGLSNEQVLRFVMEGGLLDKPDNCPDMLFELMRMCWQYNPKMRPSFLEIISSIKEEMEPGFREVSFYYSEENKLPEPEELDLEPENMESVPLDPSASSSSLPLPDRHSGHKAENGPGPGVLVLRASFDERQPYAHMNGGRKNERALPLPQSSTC
# In short: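 IGF-1R protein and peptide substrate were preincubated 30 min at RT with compound. Phosphorylated and non-phosphorylated fluorescent peptides were separated by mobility shift, and the read-out is the conversion ratio.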
# [8] = Mouse in vivo PK study; details: male CDI mice; for F: PO 10 mg/kg vs IV 1 mg/kg; for clearance / half-life / AUC / Cmax: mouse, plasma; for clearance / half-life: IV 1 mg/kg; for half-life: read-out: T1/2 (IV) (converted); for AUC / Cmax: PO 10 mg/kg
# Experimental: To determine the drug concentration in plasma of NJB-342, NJB-348 and NJB-463 following intravenous and oral administration in male CDI Mice, to get the pharmacokinetic profile and PK parameters
# Test animals: healthy male CDI mice (body weight 20-30 g, 18 mice, free access to food and water), provided by Sibeifu laboratory.
# Dose Level and dose route: dosed the animals via intravenous injection from tail vein for IV group (1 mg/kg, 5 mL/kg, 10% DMSO/40% PEG400/50% water), dosed the animals via oral gavage for PO group (10 mg/kg, 10 mL/kg, (10% DMSO/40% PEG400/50% water), respectively.
# Samples collection: the healthy animals were used, weighed the bodyweight and marked at tail and cage card prior to dosing. Blood samples (0.03 mL per time point) were collected from dorsal metatarsal vein at 0.083, 0.25, 0.5, 1, 2, 4, 8, 24 h post dose for IV group and at 0.25, 0.5, 1, 2, 4, 8, 24 h post dose for PO group, the terminal time point was collected from heart (˜0.3 mL). The blood samples were put into the tube with heparin-Na coated and then put on the cold box, centrifuged at 4° C. 4000 g, 5 minutes immediately after collecting all samples per time point to get plasma. The plasma samples were stored in a freezer at −75±15° C. prior to analysis.
# [9] = target: T2, INSR (Homo sapiens, UniProt P06213); test: INSR inhibition assay (Caliper EZ Reader); assay type: biochemical; details: enzyme assay
# T2 construct: purchased CARNA BIOSCIENCE 08-142
# T2 sequence (P06213 989-1382 limits assumed): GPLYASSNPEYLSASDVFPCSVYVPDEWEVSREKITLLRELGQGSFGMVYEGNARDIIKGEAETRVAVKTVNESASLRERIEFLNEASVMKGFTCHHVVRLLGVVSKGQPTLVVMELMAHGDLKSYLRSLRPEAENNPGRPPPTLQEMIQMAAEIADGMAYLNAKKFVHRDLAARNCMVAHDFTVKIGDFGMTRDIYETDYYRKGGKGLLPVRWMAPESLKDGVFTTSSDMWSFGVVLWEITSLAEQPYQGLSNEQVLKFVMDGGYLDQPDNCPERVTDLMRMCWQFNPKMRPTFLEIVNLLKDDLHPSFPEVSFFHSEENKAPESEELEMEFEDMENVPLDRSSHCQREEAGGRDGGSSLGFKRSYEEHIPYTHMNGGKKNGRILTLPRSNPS
IC50 [1] [nM],IC50 [2] [nM],"IC50 ([3]; Homo sapiens, NCI-H1975, 72 h) [nM]","IC50 ([3]; 72 h, hydrochloride) [nM]","IC50 ([4]; Homo sapiens, PC-9, 72 h) [nM]","IC50 ([4]; 72 h, hydrochloride) [nM]","IC50 ([5]; Homo sapiens, A-431, 72 h) [nM]","IC50 ([5]; 72 h, hydrochloride) [nM]",IC50 [6] [nM],IC50 [7] [nM],F [8] [%],clearance [8] [mL/min/kg],half-life [8] [min],AUC [8] [ng·h/mL],Cmax [8] [ng/mL],IC50 [9] [nM],SMILES
400,2.19,4.62,3.23,7.23,10.9,1770,928,7.14,470,10.3,110,66.6,165,58,514,"C=CC(=O)Nc1cc(Nc2nccc(-c3cc(C(N)=O)cc4c3ccn4C)n2)c(OC)cc1N(C)CCN(C)C [Example 34, 4-(2-((5-Acrylamido-4-((2-(dimethylamino)ethyl)(methyl)amino)-2-methoxyphenyl)amino)pyrimidin-4-yl)-1N-methyl-1H-indole-6-carboxamide hydrochloride]"
66.3,4.19,2.37,,2.29,,396,,3.69,337,42.1,97,79.2,677,176,366,"C=CC(=O)Nc1cc(Nc2nccc(-n3nc(N(C)C)c4ccccc43)n2)c(OC)cc1N(C)CCN(C)C [Example 42, N-(5-((4-(3-(Dimethylamino)-1H-indazol-1-yl)pyrimidin-2-yl)amino)-2-((2-(dimethylamino)ethyl)(methyl)amino)-4-methoxyphenyl) acrylamide]"
